In article PMC12299140, “Synthetic Analogs of the Alkaloid Cassiarin A with Enhanced Antimalarial Activity” (Pharmaceuticals, 2025):
Read-outs that look alike come from different tables or passages of the source.

Assays:
[1] = system: chloroquine-sensitive Plasmodium falciparum strain 3D7; assay: Malstat assay, chloroquine-sensitive strain 3D7; type: cell-based; conditions: for IC50 / IC90: Plasmodium falciparum; for IC50: read-out: P. falciparum 3D7 IC50; for IC90: read-out: P. falciparum 3D7 IC90
Method: (§1) The chloroquine-sensitive Plasmodium falciparum strain 3D7 and the chloroquine-resistant strain Dd2 were cultivated in vitro at 5% hematocrit in complete medium comprising RPMI 1640/HEPES medium supplemented with 0.5% w/w Albumax II, 10 µg/mL gentamicin, and 50 µg/mL hypoxanthine. Cultures were maintained at 37 °C in an atmosphere of 5% CO2, 5% O2, and 90% N2. To enrich parasites in the ring-stage, an asexual blood stage culture was synchronized. The culture was centrifuged at 1000× g for 3 min, and the supernatant was discarded. The cell pellet was resuspended in 5% sorbitol and incubated at room temperature for 10 min. Subsequently, the culture was centrifuged, and the pellet was washed with RPMI 1640/HEPES medium. After a final centrifugation step, the cell pellet was resuspended in fresh complete medium and returned to standard culture conditions for further cultivation. Human serum and erythrocyte concentrate were obtained from the Department of Transfusion Medicine, University Hospital Aachen, Germany. Donor sera and blood samples were pooled and kept anonymous. The work with human blood was approved by the Ethics Commission of the RWTH University Hospital (EK 007/13).
(§2) Synchronized ring-stage cultures of the P. falciparum strains 3D7 and Dd2 mixed with the compound were plated in triplicate into 96-well plates (200 µL/well) at a parasitemia of 1%. […] In addition, a dilution series with chloroquine with concentrations between 500 nM and 4 nM was used as a positive control and 0.5% v/v DMSO was used as a negative control. The cultures were then incubated under standard culture conditions for 72 h. Following incubation, 20 µL of the culture was transferred in triplicate to a new 96-well plate and mixed with 100 µL of Malstat reagent (0.1% v/v Triton X-100, 1 g L-lactate, 0.33 g Tris and 33 mg of 3-acetylpyridine adenine dinucleotide in 100 mL distilled water, pH 9.0) and 20 µL mixture of NBT and diaphorase (1:1 v/v; 1 mg/mL stock each). After colour development in the wells, absorbance was measured at OD630nm using a Tecan Plate Reader. The IC50 and IC90 values of the compounds were then determined using the GraphPad Prism software.

[2] = system: chloroquine-resistant P. falciparum strain Dd2; assay: Malstat assay, chloroquine-resistant strain Dd2; type: cell-based, Plasmodium falciparum; conditions: for RI, resistance index = IC50 (Dd2)/IC50 (3D7): Dd2 vs 3D7; for IC50 / IC90: Plasmodium falciparum; for IC50: read-out: IC50 P. falciparum Dd2; for IC90: read-out: IC90 P. falciparum Dd2
Method: as §1, §2

[3] = system: Human umbilical vein endothelial cells (HUVECs); assay: Cytotoxicity assay (CellTiter-Blue cell viability assay); type: cell-based; conditions: HUVEC, 72 h
Method: Human umbilical vein endothelial cells (HUVECs) were purchased from Promocell (Heidelberg, Germany) and cultivated with ECGM Kit enhanced (PELO Biotech, Planegg, Germany) supplemented with 10% (FCS) (PAA Laboratories, Cölbe, Germany) and 1% penicillin/streptomycin/amphotericin B (all purchased from PAN Biotech). Cells were cultured at 37 °C with 5% CO2 with constant humidity. Cell proliferation was assessed using the CellTiter-Blue cell viability assay (Promega, Madison, WI, USA). Cells were treated as indicated for 72 h and 4 h before termination CellTiter-Blue reagent was added in a ratio of 1:10. Fluorescence intensity was determined by using the SpectraFluor Plus plate reader (Tecan, Männedorf, Switzerland) at 550 nm excitation and 595 nm emission wavelength. Fluorescence intensity is proportional to the cell number. Non-linear regression was carried out using the log(inhibitor) vs. response–variable slope (four parameters) function of GraphPad Prism (San Diego, CA, USA).
Figure 4 Cytotoxic effects of cassiarin A (5) and analogs 11b, 11c, and 11d on proliferation of HUVEC assessed by CellTiter-Blue^TM assay. IC50 values were determined using the log(inhibitor) vs. response—variable slope (four parameters) function of GraphPad Prism (10.4.0). Data are shown as mean ± SD.

[4] = system: Human umbilical vein endothelial cells (HUVECs); conditions: cited from earlier work
[5] = chloroquine-sensitive strain 3D7, Malstat assay, 72 h
[6] = chloroquine-resistant strain Dd2, Malstat assay, 72 h

| IC50 [1, 5] | IC90 [1, 5] | Structure (SMILES) | RI, resistance index = IC50 (Dd2)/IC50 (3D7) [2] | IC50 [2, 6] | IC90 [2, 6] | IC50 [3] | further results |
| --- | --- | --- | --- | --- | --- | --- | --- |
| 2000 ± 180 nM | 2900 ± 530 nM | Oc1cc2c3c(nc(-c4ccccc4)cc3c1)C=C(c1ccccc1)O2 [Compound 11b, 2,5-Diphenylpyrano[2,3,4-ij]isoquinolin-8-ol] |  |  |  | 2220 nM |  |
| 2200 ± 580 nM | 3200 ± 680 nM | COc1cc2c3c(nc(C)cc3c1)C=C(c1ccc(OCCO)cc1)O2 [Compound 18b, 2-(4-(8-Methoxy-5-methylpyrano[2,3,4-ij]isoquinolin-2-yl)phenoxy)ethan-1-ol] |  |  |  |  |  |
| 2100 ± 380 nM | 2700 ± 220 nM | OCc1cc2cc(O)cc3c2c(n1)C=C(c1ccccc1)O3 [Compound 11e, 5-(Hydroxymethyl)-2-phenylpyrano[2,3,4-ij]isoquinolin-8-ol] |  |  |  |  |  |
| 1700 ± 200 nM | 3400 ± 1280 nM | OCCc1cc2cc(O)cc3c2c(n1)C=C(c1ccccc1)O3 [Compound 11f, 5-(2-Hydroxyethyl)-2-phenylpyrano[2,3,4-ij]isoquinolin-8-ol] |  |  |  |  |  |
| 1900 ± 190 nM | 2500 ± 490 nM | CCCCC1=Cc2nc(C)cc3cc(O)cc(c23)O1 [Compound 18a, 2-Butyl-5-methylpyrano[2,3,4-ij]isoquinolin-8-ol] |  |  |  |  |  |
| ≥ 100000 nM | ≥ 100000 nM | C#CCOc1cc2c3c(nc(C)cc3c1)C=C(c1ccccc1)O2 [Compound 24, 5-Methyl-2-phenyl-8-(prop-2-in-1-yloxy)pyrano[2,3,4-ij]isoquinoline] |  |  |  |  | antiplasmodial activity (in words) ([1]; strain 3D7, Malstat assay): complete loss of antiplasmodial activity |

More lines, now with the values behind:

| Structure (SMILES) | IC50 [1, 5] | IC90 [1, 5] | RI, resistance index = IC50 (Dd2)/IC50 (3D7) [2] | IC50 [2, 6] | IC90 [2, 6] | IC50 [3] | further results |
| --- | --- | --- | --- | --- | --- | --- | --- |
| CC1=Cc2nc(CN)cc3cc(O)cc(c23)O1 [Compound 11a, 5-(Aminomethyl)-2-methylpyrano[2,3,4-ij]isoquinolin-8-ol] | 31900 ± 11500 nM | 53300 ± 10500 nM |  |  |  |  |  |
| NCc1cc2cc(O)cc3c2c(n1)C=C(c1ccccc1)O3 [Compound 11d, 5-(Aminomethyl)-2-phenylpyrano[2,3,4-ij]isoquinolin-8-ol] | 600 ± 110 nM | 1000 ± 280 nM | 2.0 | 1200 ± 320 nM | 1800 ± 170 nM | 680 nM |  |
| CC1=Cc2nc(C)cc3cc(O)cc(c23)O1 [Compound 5, Cassiarin A] | 9600 ± 630 nM | 16400 ± 3070 nM | 1.4 | 13600 ± 3950 nM | 20500 ± 11900 nM | 16400 nM |  |
| COC(=O)c1ccc(C2=Cc3nc(C)cc4cc(O)cc(c34)O2)cc1 [Compound 18c, Methyl 4-(8-hydroxy-5-methylpyrano[2,3,4-ij]isoquinolin-2-yl)benzoate] | 200 ± 50 nM | 400 ± 140 nM | 2.0 | 400 ± 210 nM | 800 ± 580 nM |  |  |
| Cc1cc2cc(O)cc3c2c(n1)C=C(c1ccc(O)cc1)O3 [Compound 11g, 2-(4-Hydroxyphenyl)-5-methylpyrano[2,3,4-ij]isoquinolin-8-ol] | 400 ± 30 nM | 900 ± 540 nM | 4.8 | 1900 ± 1010 nM | 5900 ± 3420 nM |  |  |
| CCN(CC)CCCC(C)Nc1ccnc2cc(Cl)ccc12 (centres unmarked) [Compound 2, chloroquine, reference compound] |  |  | 5.3 |  |  |  | selectivity index (=IC50 (HUVEC)/IC50 (3D7)) [4]: 1987; IC50 ([2]; DD2, 72 h): 160 ± 40 nM; IC90 ([2]; DD2, 72 h): 230 ± 130 nM; IC50 ([1]; 3D7, 72 h): 30 ± 10 nM; IC90 ([1]; 3D7, 72 h): 50 ± 10 nM |
| Cc1cc2cc(O)cc3c2c(n1)C=C(c1ccccc1)O3 [Compound 11c, 5-Methyl-2-phenylpyrano[2,3,4-ij]isoquinolin-8-ol] | 400 ± 40 nM | 500 ± 110 nM | 4.3 | 1700 ± 740 nM | 2100 ± 1080 nM | 1230 nM |  |
